From US9006185B2, “Use of cell-permeable peptide inhibitors of the JNK signal transduction pathway for the treatment of various diseases” (Xigen Inflammation Ltd., priority 2008, dated 2015)
“Also recorded” adds a separate entry of the source.

What was measured:
TC-3 cells = assay: Cellular import of fluorescein-labeled TAT and TAT-IB1(s) peptides; format: cell-based
Procedure: The ability of the L- and D-enantiomeric forms of TAT and TAT-IB1(s) peptides (“TAT-IB peptides”) to enter cells was evaluated. L-TAT, D-TAT, L-TAT-IB1(s), and D-TAT-IB1(s) peptides [SEQ ID NOs: 5, 6, 9 and 12, respectively] were labeled by N-terminal addition of a glycine residue conjugated to fluorescein. Labeled peptides (1 μM) were added to TC-3 cell cultures, which were maintained as described in Example 3. At predetermined times cells were washed with PBS and fixed for five minutes in ice-cold methanol-acetone (1:1) before being examined under a fluorescence microscope. Fluorescein-labeled BSA (1 μM, 12 moles/mole BSA) was used as a control.
Little to no signal was present at 48 hours.
Fluorescent signals from these all-D retro-inverso peptides were still very strong 1 week later, and the signal was only slightly diminished at 2 weeks post treatment.

[1] = test system: recombinant JNK1, JNK2 and JNK3; assay: Solid phase kinase assay, phosphorylation of c-Jun, ATF2 and Elk1 by recombinant JNKs; format: biochemical; settings: GST-Jun (aa 1-73), JNK1, JNK2, JNK3, 0-250 μM dosage study
Procedure: The effects of the peptides on JNKs-mediated phosphorylation of their target transcription factors were investigated in vitro. Recombinant and non activated JNK1, JNK2 and JNK3 were produced using a TRANSCRIPTION AND TRANSLATION rabbit reticulocyte lysate kit (Promega) and used in solid phase kinase assays with c-Jun, ATF2 and Elk1, either alone or fused to glutathione-S-transferase (GST), as substrates. Dose response studies were performed wherein L-TAT or L-TAT-IB1(s) peptides (0-25 μM) were mixed with the recombinant JNK1, JNK2, or JNK3 kinases in reaction buffer (20 mM Tris-acetate, 1 mM EGTA, 10 mM p-nitrophenyl-phosphate (pNPP), 5 mM sodium pyrophosphate, 10 mM p-glycerophosphate, 1 mM dithiothreitol) for 20 minutes. The kinase reactions were then initiated by the addition of 10 mM MgCl2 and 5 pCi ^33P-dATP and 1 μg of either GST-Jun (aa 1-89), GST-AFT2 (aa 1-96) or GST-ELK1 (aa 307-428). GST-fusion proteins were purchased from Stratagene (La Jolla, Calif.).
Ten μL of glutathione-agarose beads were also added to the mixture. Reaction products were then separated by SDS-PAGE on a denaturing 10% polyacrylamide gel. Gels were dried and subsequently exposed to X-ray films (Kodak). […] The ability of D-TAT, D-TAT-IB1(s) and L-TAT-IB1(s) peptides (0-250 μM dosage study) to inhibit GST-Jun (aa 1-73) phosphorylation by recombinant JNK1, JNK2, and JNK3 by were analyzed as described above. […]

hAPP Tg mice = assay: Plaque load by 6E10 immunohistochemistry and ThioflavinS staining in hAPP Tg mice; format: in vivo
Procedure: iv) Treatment • Forty female hAPP transgenic mice were treated with either 0.1 mg/kg b.w./every two weeks or 10 mg/kg b.w./every three weeks of the test substance XG-102 (SEQ ID NO: 11) in two different dosages (n=12/group) or treated with the vehicle (n=12) s.c. once every three weeks over four months.
viii) Evaluation of Brain Morphology • Brain tissues of all Tg animals investigated were handled in exactly the same way to avoid bias due to variation of this procedure. From brain halves of 24 Tg mice (8 of each group) 20 cryo-sections per layer (altogether 5 layers), each 10 μm thick (Leica CM 3050S) were sagittally cut and 5 (one from each layer) were processed and evaluated for quantification of plaque load. The five sagittal layers corresponded with the FIGS. 104 to 105, 107 to 108, 111 to 112, 115 to 116 and 118 to 119 according to the morphology atlas “The Mouse Brain” from Paxinos and Franklin (2nd edition). The first layer was specified by the requirement to include the whole hippocampus with it's regions CA1, CA2, CA3, GDIb and GDmb. Immunoreactivity was quantitatively evaluated in the hippocampus and in the cortex using the monoclonal human Aβ-specific antibody 6E10 (Signet) as well as ThioflavinS staining. Remaining brain hemispheres or tissue not used were saved and stored at JSW CNS until the end of the project. b) Evaluation
iii) Histology • i1) Measurement of Amyloid Depositions and Plaque Load • For 6E10 immunohistochemistry the following evaluation procedure was used: • aa) Contrasting the image for visualization of slice borders without applying the contrast on the image. • bb) Interactive drawing of the cortical outlines and the following measurement of the cortical area (=region area). • cc) Interactive drawing of the area of interest (AOI), in which stained objects are detected over a certain intensity based threshold level (the same for each image) and above a size of 8 μm^2. • dd) Measurement of the area of each object, the sum of stained area in the AOI as well as the number of objects after a smooth contrasting to enhance signal/noise ratio (the same for each image). • ee) Repetition of aa)-dd) for the hippocampus. • ff) Calculation of the mean plaque size (=“sum area of plaques/number of plaques”), the relative plaque number and area (=“number of plaques/region area” and “sum area of plaques/region area*100”). • gg) Automated data export into an Excel spread sheet, including the parameters “image title, region area, number of plaques, sum of plaque area, relative plaque number, relative plaque area and mean plaque size. A field for remarks was used to record image quality and exclusion criteria, respectively. Exclusion criteria were missing parts of the slice, many wrinkles, dominant flaws or staining inconsistencies (e.g. due to bulges, which can impede the full reaction of the blocking reagent). • hh) Closing the image without saving (to keep raw data raw). c) Results

THP-1 cells = assay: LPS-induced cytokine and chemokine release in THP-1 cells; format: cell-based

Description for db/db mice: i) Animals • A total of twenty (20) male db/db mice (8 weeks old) were obtained from Charles River (Germany). Upon arrival, animals were group housed (n=6-7/group) and offered regular rodent chow (Altromin standard #1324 chow; C. Petersen, Ringsted, Denmark) and water ad libitum unless otherwise stated. • The mice were housed under a 12:12 L/D cycle (lights on at 4:00 and lights off at 16:00) and in temperature and humidity controlled rooms.
ii) Groups and Randomization • On day 4, mice were randomized according to blood glucose level (fasted; blood glucose measured on Biosen S line analyzer (EKF diagnostic, Germany) to participate in one of the following drug treatment groups (n=6): • 1) Vehicle control, S.C. […] Drug purity: 95.28%, peptide content: 78.0%. All compounds were administered sub-cutaneously (s.c.) in a volume of 3 ml/kg. […] The formulations (concentrations of 0.33 and 3.3 mg/ml, corresponding to the doses of 1 and 10 mg/kg, respectively) were prepared according to the procedure detailed below. […] Aliquots are prepared for each treatment day and stored at approximately −80° C. Dilutions of this stock solution to the required concentrations are performed on each treatment day; • Storage of the stock solution: at approximately −80° C.; • Storage of the diluted preparations: at room temperature for 24 hours maximum. • Prior to solubilisation, the powder was stored at −20° C. The stability of the stock solution is 3 months at approximately −80° C.; the stability of the diluted formulations for animal dosing is 24 hours at room temperature. Unused diluted material could be stored for up to 7 days if kept at 4-8° C. c) Experimental Procedure
Following 8 days of acclimatization the mice were treated daily at 08.00 AM for 21 days by SC dosing 8 hours prior to lights out at 04.00 PM according to the outline groups.
i) Blood Glucose • Blood glucose was measured from 7 hour fasted animals 6 hours post dosing by collection of 10 μl blood samples from the tail-vein in hematocrite tubes and subsequent analysis on a Biosen s-line analyzer (EKF-diagnostic; Germany).
ii) Metabolic Cages • Groups 1+3: Mice were placed in metabolic cages for the recording of 24-hour food and water intake as well as 24-hour urine and feces production. Mice were stratified into two sub-teams of n=6-7 and subsequently the metabolic characterisation were performed on study days 71-72.
iii) Adipokine Panel • Groups 1+3: On three occasions (study days 57, 66 and 108) blood was collected from the tail vein using EDTA coated hematocrite tubes (100 μl). Following centrifugation of blood the plasma was collected and stored at −20° C. until measurement. Then, the following panel of adipokines/cytokines was determined using Luminex based 7-plex: leptin, resistin, MCP-1, PAI-1, TNF, insulin and interleukin-6 (IL-6).
iv) Termination • Groups 1+3 (day 111): The following organs were excised and weighed: inguinal subcutaneous fat, epididymal fat, retroperitoneal fat, brain, liver, kidney, spleen and heart. All organs described above were samples in 4% PFA for possible future histo-pathological examination. Also, pancreas (en bloc) was sampled for possible stereological and immunohistochemical analysis, and eyes were sampled for possible later analysis of retinopathy. Group 2 (day 28): No tissues or plasma were collected. c) Results

## CC(C)C[C@@H](NC(=O)[C@@H](Cc1ccccc1)NC(=O)[C@H]1CCCN1C(=O)[C@@H](CCC(N)=O)NC(=O)[C@H](NC(=O)[C@H]1CCCN1C(=O)[C@@H](CCCNC(=N)N)NC(=O)[C@@H](CO)NC(=O)[C@@H](CCC(N)=O)NC(=O)[C@H](N)CC(=O)O)C(C)C)C(=O)N[C@H](CC(N)=O)C(=O)N[C@H](CC(C)C)C(=O)N[C@@H](C(=O)N[C@@H](C(=O)N1CCC[C@@H]1C(=O)N[C@H](CCCNC(=N)N)C(=O)N[C@H](CCCCN)C(=O)N1CCC[C@@H]1C(=O)N[C@H](CCCNC(=N)N)C(=O)N1CCC[C@@H]1C(=O)N1CCC[C@@H]1C(=O)N[C@H](CCCNC(=N)N)C(=O)N[C@H](CCCNC(=N)N)C(=O)N[C@H](CCCNC(=N)N)C(=O)N[C@H](CCC(N)=O)C(=O)N[C@H](CCCNC(=N)N)C(=O)N[C@H](CCCNC(=N)N)C(=O)N[C@H](CCCCN)C(=O)N[C@H](CCCCN)C(=O)N[C@H](CCCNC(=N)N)C(=O)NCC(=O)O)[C@H](C)O)[C@H](C)O [XG-102]
TC-3 cells
  entry into cells (fluorescence microscopy): efficiently and rapidly (less than five minutes) entered cells
  stability inside the cells: extremely stable inside the cells
[1]
  efficiency in decreasing JNK-mediated phosphorylation of c-Jun, fold less than L-TAT-IB1(s): 10-20 fold
hAPP Tg mice; 0.1 mg/kg
  mean plaque size (ThioflavinS, hippocampus): reduced mean plaque size, however this effect did not reach significance level
hAPP Tg mice; 10 mg/kg
  cortical 6E10 IR plaque load: increased versus vehicle
hAPP Tg mice; mouse, in vivo
  ThioflavinS plaque area [%] in the hippocampus: significantly reduced the area obtained by plaques in the hippocampus
  cortical plaque load (ThioflavinS): cortical plaque load remained unchanged
hAPP Tg mice; p<0.05 for 10 mg/kg, p<0.01 for 0.1 mg/kg
  number of hippocampal ThioflavinS positive plaques: reduced the number of plaques negatively dose-dependent in the hippocampus; also recorded: a negatively dose dependent reduction of the number of hippocampal ThioflavinS positive plaques
THP-1 cells
  LPS-induced TNFa, IL-6 and MCP-1 release: reducing LPS-induced TNFa, IL-6 and MCP-1 release in THP-1 cells
db/db mice; 1 mg/kg s.c., 28 days of dosing
  fasting blood glucose: no effect
db/db mice; 1 mg/kg, 28 days of dosing
  body weight: no effect
db/db mice; 10 mg/kg s.c.
  fasting blood glucose, low plateau: approximately 5 mmol/L
db/db mice; 10 mg/kg s.c. daily for 21 days, then wash-out to day 111
  fasting blood glucose vs vehicle control: clear and significant (p<0.001) decrease in the level of fasting blood glucose
db/db mice; 10 mg/kg, day 57, 77 and 108
  plasma levels of insulin, MCP-1, IL-6, tPAI-1, TNF: no significant effects
db/db mice; 10 mg/kg, day 77 and 108
  plasma resistin: significantly higher
db/db mice; 10 mg/kg, from day 28 to day 111
  body weight vs vehicle control: clear and significant (p<0.001) prevention of body weight increase
db/db mice; 10 mg/kg, study day 68
  24 hour food and water intake, urine and feces production (metabolic cages): no significant effects
db/db mice; 10 mg/kg, termination day 111
  tissue weight of epididymal and retroperitoneal fat pads: significant decrease of epididymal (p<0.05) and retroperitoneal (p<0.01) fat mass
  tissue weight of kidney and liver: significant decrease of kidney (p<0.05) and liver (p<0.01) mass
db/db mice; mouse, in vivo
  alertness, activity, sedation: no signs of sedation
